SMILES strings stand for the structures.

The record followed here is patent publication US7659284B2, “Thiazolopyridine kinase inhibitors” (Janssen Pharmaceutica NV, priority 2004, dated 2010).

What all share (assay type): biochemical
The target in one assay is T1, EGFR (Homo sapiens, UniProt P00533).
T1 construct: started at nucleotide 2189 (corresponding to amino acid 667) and ended at the termination codon; made in house; host or cells: Sf9 insect cells (baculovirus)
As to the kind of experiment: EGFR Kinase Assay (GST-EGFR, 33P-ATP, Streptavidin Flashplate). The following applies: for inhibition at 2 µM: test concentration of 2 μM, read-out: EGFR percent inhibition; for IC50: GST-EGFR intracellular portion, 5 μM ATP. An excerpt: The EGFR kinase used was a fusion of Glutathione-S-Transferase (GST) and a PCR amplified intracellular portion of EGFR (NM_005228). The intracellular portion of EGFR started at nucleotide 2189 (corresponding to amino acid 667) and ended at the termination codon. The portion was PCR amplified with primers that added the lambda attB sequences to each end, recombined into an entry vector, then into a GST destination vector (as described in Gateway Technologies Manual by Invitrogen Corporation, Carlsbad, Calif.).
The destination vector was recombined in the DH10BAC strain of bacteria to produce a bacmid. The bacmid was transfected into Sf 9 cells and the supernatant containing the baculovirus was collected. The GSTEGFR protein was purified using large cultures of Sf 9 cells infected with stock virus. After an appropriate period of time, the cells were collected and lysed. The GSTEGFR was then purified from the lysate on Glutathione-Sepharose columns (as described by Amersham Biosciences, Buckinghamshire, United Kingdom).
The EGFR substrate was prepared by biotinylating polyGluTyr (128 mg) (Sigma, St. Louis, Mo.) in a 1×PBS buffer incubated together with a 12-fold molar excess of Sulfo-NHS-LC-Biotin on ice for at least 2 hrs. The free biotin was separated from the biotinylated polyGluTyr on a gel filtration column.
A mixture of a 10× kinase buffer (500 mM Tris at pH 8.0, 100 mM Magnesium Chloride and 1 mM Sodium Vanadate), DTT (1 mM final from 500 mM stock), ATP (5 μM final from 10 mM stock), biotinylated polyGluTyr (10 μg/μL stock), γ-^33P ATP (10 μCi/μL stock) and water was added to each well (90 μL/well) of a Streptavidin Flashplate (Perkin Elmer, Wellesley, Mass.).
Test compound in 100% DMSO (2 μL) was added to the appropriate wells. Diluted GSTEGFR (1:300 dilution in 50 mM Tris at pH 8.0 and 0.1% bovine serum albumin) (10 μL) was added to the wells to initiate the reactions.
The plates were incubated at 30° C. for 1 hr with shaking. The reacted contents were removed and the plates were sequentially washed three times with a 1×PBS stop buffer (300 μL without Magnesium and Calcium) and 100 mM EDTA. After the final wash, the same stop buffer (200 μL) was added to the wells. The plates were then sealed and read on the TopCount scintillation counter.
Test compounds were assayed in triplicate at 16 concentrations at half-log dilutions starting at 200 uM. A maximum and minimum signal for the assay was determined on each plate. The percent inhibition of a test compound was calculated accord to the formula
For a series of test concentrations, the IC50 was derived by graphing percent inhibition against the log of the concentrations tested for a given compound. For those compounds without an IC50, the percent inhibition results are shown at a test concentration of 2 μM.

Another assay has as its target T2, c-Src kinase (human) (Homo sapiens, UniProt P12931).
T2 construct: purchased Upstate Biotechnology, Lake Placid, N.Y
The experiment in a line: c-Src Kinase Assay. The following applies: for IC50: human c-Src, 5 μM ATP; for inhibition at 1.6 µM: test concentration (2) 1.6 μM, read-out: c-SRC percent inhibition. Here is the method:
[…] a 10× kinase buffer (80 mM MOPS at pH 7.0, 2 mM EDTA and 100 mM Magnesium Chloride), ATP (5 μM final from a 10 mM stock), a Cdc2 peptide KVEKIGEGTYGVVYK (100 μM final from a 2.5 mM stock), γ-^33P ATP (10 μCi/μL stock) and water (20 μL/well) was added to each well of a Streptavidin Flashplate.
Test compound in 100% DMSO (0.5 μL) was added to the appropriate wells. Diluted c-Src kinase (human) (Upstate Biotechnology, Lake Placid, N.Y.) (diluted in a buffer consisting of 20 mM MOPS at pH 7.0, 1 mM EDTA, β-mercaptoethanol (0.1%), Brij-35 (0.01%), glycerol (5%), and 1 mg/mL bovine serum albumin) (2.5 μL) was added to the wells to initiate the reactions. The reaction plates were incubated at 30° C. for 40 min. The reaction was terminated by the addition of a 3% phosphoric acid solution (5 μL). The reaction product (10 μL) was spotted onto a P30 filtermat and washed for 5 minutes in phosphoric acid (75 mM). The wash sequence was repeated two more times, followed with one final wash in methanol. The plates were then dried, sealed and read on the TopCount scintillation counter after adding 30 μL scintillation fluid.
The percent inhibitions and IC50 values were derived according to the procedure described in Example 52. For those compounds without an IC50, the percent inhibition results are shown at a test concentration of ^(1)1 μM or ^(2)1.6 μM.

The target of a further assay is T3, HER-2 (Homo sapiens, UniProt P04626).
T3 construct: the nucleotides encoding amino acids 679 to 1255 of HER-2; HIS6 with thrombin site (N); purchased Proqinase (Freiburg, Germany)
T3 sequence (P04626 679-1255): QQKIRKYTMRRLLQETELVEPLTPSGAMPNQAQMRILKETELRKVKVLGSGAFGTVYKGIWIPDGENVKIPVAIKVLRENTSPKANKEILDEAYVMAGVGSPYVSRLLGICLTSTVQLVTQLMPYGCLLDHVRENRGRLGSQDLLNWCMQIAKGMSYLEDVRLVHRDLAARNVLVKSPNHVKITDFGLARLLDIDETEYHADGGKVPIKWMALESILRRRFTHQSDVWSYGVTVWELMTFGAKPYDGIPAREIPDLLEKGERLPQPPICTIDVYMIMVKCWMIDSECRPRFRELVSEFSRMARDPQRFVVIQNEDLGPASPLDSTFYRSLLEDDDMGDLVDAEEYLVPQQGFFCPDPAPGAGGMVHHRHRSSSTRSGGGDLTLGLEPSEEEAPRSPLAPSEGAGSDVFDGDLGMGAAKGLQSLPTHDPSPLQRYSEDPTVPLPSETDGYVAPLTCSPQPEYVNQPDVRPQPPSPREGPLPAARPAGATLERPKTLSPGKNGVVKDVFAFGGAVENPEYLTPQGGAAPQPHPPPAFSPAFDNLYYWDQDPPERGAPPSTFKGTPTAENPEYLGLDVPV
The experiment in a line: HER-2 Kinase Assay. The conditions noted are these: GST-HER2 kinase, 1 μM ATP. Here is the method: The HER-2 kinase used was purified at Proqinase (Freiburg, Germany) from a construct that consisted of a fusion of GST (Glutathione-S-Transferase), HIS6-Thrombin and the nucleotides encoding amino acids 679 to 1255 of HER-2.
A mixture of a 10× kinase reaction buffer (600 mM Hepes at pH 7.5, 30 mM Magnesium Chloride, 0.03 mM Sodium Vanadate and 500 μg/mL PEG 20,000), DTT (1.2 mM final from a 10 mM stock), ATP (1 μM from a 10 mM stock), biotinylated polyGluTyr (1.5 ng/μL final from stock of 1 μg/μL prepared by Upstate Biotechnologies, Lake Placid, N.Y.), Manganese Chloride (3 mM final from a 1 M stock), γy-^33P-ATP (10 μCi/μL stock) and water (70 μL/well) was added to each well of a Streptavidin Flashplate (Cat. # SMP103, NEN, Boston, Mass.).
Test compound stock (1 μL) was added to the appropriate wells. Diluted GSTHER2 kinase (6.7 ng/μL diluted into 50 mM Tris-HCl at pH 8.0 and 0.1% bovine serum albumin) (30 μL) was added (total volume of 200 ng/well) to initiate the reactions.
The reaction plates were incubated at 30° C. for 1 hr. The reaction was terminated by aspirating the reaction mixture from the plate wells and washing the wells three times with a 1×PBS stop buffer (300 μL) and 100 mM EDTA. After the final wash, the same stop buffer (200 μL) was again added to the wells. The plates were then sealed and read on the TopCount scintillation counter.
The IC50 was derived according to the procedure described in Example 52. For those compounds without an IC50, the percent inhibition results are shown at a test concentration of 1 μM.

T1 sequence (P00533 667-1210 limits assumed): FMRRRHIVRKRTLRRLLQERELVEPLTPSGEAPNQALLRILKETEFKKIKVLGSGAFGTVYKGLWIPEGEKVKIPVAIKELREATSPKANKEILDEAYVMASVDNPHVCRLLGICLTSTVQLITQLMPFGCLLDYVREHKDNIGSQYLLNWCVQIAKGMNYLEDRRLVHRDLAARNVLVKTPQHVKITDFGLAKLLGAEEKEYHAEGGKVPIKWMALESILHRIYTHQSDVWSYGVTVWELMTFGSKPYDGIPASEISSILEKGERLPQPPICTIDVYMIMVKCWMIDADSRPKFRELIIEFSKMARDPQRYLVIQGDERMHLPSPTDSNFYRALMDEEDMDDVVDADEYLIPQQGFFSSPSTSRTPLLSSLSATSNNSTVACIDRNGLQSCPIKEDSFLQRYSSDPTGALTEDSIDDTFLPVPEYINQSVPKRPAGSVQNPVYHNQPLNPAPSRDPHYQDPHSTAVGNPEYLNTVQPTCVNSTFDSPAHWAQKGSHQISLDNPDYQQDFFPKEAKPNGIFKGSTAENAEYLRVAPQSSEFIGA
T2 sequence (P12931 whole entry): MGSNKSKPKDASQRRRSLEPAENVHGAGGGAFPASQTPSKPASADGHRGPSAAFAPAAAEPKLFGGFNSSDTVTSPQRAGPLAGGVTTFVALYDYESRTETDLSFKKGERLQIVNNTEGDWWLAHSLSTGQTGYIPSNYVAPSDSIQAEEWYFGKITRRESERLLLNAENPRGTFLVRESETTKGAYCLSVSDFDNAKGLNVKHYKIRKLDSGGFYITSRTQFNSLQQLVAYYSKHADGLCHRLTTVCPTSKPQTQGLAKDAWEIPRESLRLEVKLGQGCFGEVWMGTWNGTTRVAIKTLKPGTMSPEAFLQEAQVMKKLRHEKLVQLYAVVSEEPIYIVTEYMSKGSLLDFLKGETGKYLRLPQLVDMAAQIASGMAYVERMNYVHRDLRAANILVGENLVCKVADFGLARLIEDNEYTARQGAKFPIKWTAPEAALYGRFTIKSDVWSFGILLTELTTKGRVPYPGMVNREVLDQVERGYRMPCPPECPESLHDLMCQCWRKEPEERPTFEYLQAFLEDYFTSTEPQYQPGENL

As a reminder, the inhibition is the share of the control response that was lost under treatment. A word on the IC50: it is the point on the concentration scale where inhibition reaches its midpoint. Lower therefore signals greater potency in that assay. `CN1CCCC(COc2ccc(Nc3nc4ncc(C#N)c(Nc5c(Cl)ccc6c5OCO6)c4s3)cc2)C1` (centres unmarked) [Cpd 40, 7-(5-chloro-benzo[1,3]dioxol-4-ylamino)-2-[4-(1-methyl-piperidin-3-ylmethoxy)-phenylamino]-thiazolo[4,5-b]pyridine-6-carbonitrile]: the inhibition at 2 µM on EGFR was found to be 46%. The same compound registered an IC50 at c-Src kinase (human) of 2.39 µM.
`CN1CCCC(COc2ccc(Nc3nc4ncc(C#N)c(Sc5cccc(Br)c5)c4s3)cc2)C1` (centres unmarked) [Cpd 38, 7-(3-bromo-phenylsulfanyl)-2-[4-(1-methyl-piperidin-3-ylmethoxy)-phenylamino]-thiazolo[4,5-b]pyridine-6-carbonitrile] came in with an IC50 at EGFR of 2.2 µM. For the same compound, the inhibition at 1.6 µM at c-Src kinase (human) turned out to be 4%.
As for `N#Cc1cnc2nc(Nc3ccc(CN4CCCCC4)cc3)sc2c1Nc1c(Cl)ccc2c1OCO2` [Cpd 41, 7-(5-chloro-benzo[1,3]dioxol-4-ylamino)-2-(4-piperidin-1-ylmethyl-phenylamino)-thiazolo[4,5-b]pyridine-6-carbonitrile], on EGFR, the inhibition at 2 µM is 44%. It took 0.079 µM to reach half-maximal inhibition on c-Src kinase (human) (IC50).
As for `CN1CCCC(COc2ccc(Nc3nc4ncc(C#N)c(Oc5ccc(Cl)cc5Cl)c4s3)cc2)C1` (centres unmarked) [Cpd 36, 7-(2,4-dichloro-phenoxy)-2-[4-(1-methyl-piperidin-3-ylmethoxy)-phenylamino]-thiazolo[4,5-b]pyridine-6-carbonitrile], at EGFR, the IC50 amounted to 8.76 µM. Further, on c-Src kinase (human), the inhibition at 1.6 µM was found to be 4%.
For `COc1cc(Nc2nc3ncc(C#N)c(Nc4c(Cl)ccc5c4OCO5)c3s2)ccc1OCCN1CCOCC1` [Cpd 42, 7-(5-chloro-benzo[1,3]dioxol-4-ylamino)-2-[3-methoxy-4-(2-morpholin-4-yl-ethoxy)-phenylamino]-thiazolo[4,5-b]pyridine-6-carbonitrile], at EGFR, the inhibition at 2 µM is 18%. The compound also displayed an IC50 against c-Src kinase (human) of 1.38 µM.
In turn, `CN1CCN(Cc2ccc(Nc3nc4ncc(C#N)c(Nc5c(Cl)ccc6c5OCO6)c4s3)cc2)CC1` [Cpd 46, 7-(5-chloro-benzo[1,3]dioxol-4-ylamino)-2-[4-(4-methyl-piperazin-1-ylmethyl)-phenylamino]-thiazolo[4,5-b]pyridine-6-carbonitrile] returned an IC50 against c-Src kinase (human) of 0.389 µM.
`C#Cc1cccc(Nc2c(C#N)cnc3nc(Nc4ccc(CN(C)C)cc4)sc23)c1` [Cpd 10, 2-(4-dimethylaminomethyl-phenylamino)-7-(3-ethynyl-phenylamino)thiazolo[4,5-b]pyridine-6-carbonitrile]: the IC50 against EGFR was determined as 0.0565 µM; against HER-2, 10 µM.
Turning to `COc1cc(Nc2nc3ncc(C#N)c(Nc4c(Cl)ccc5c4OCO5)c3s2)ccc1OCC1CCCCO1` (centres unmarked) [Cpd 43, 7-(5-chloro-benzo[1,3]dioxol-4-ylamino)-2-[3-methoxy-4-(tetrahydro-pyran-2-ylmethoxy)-phenylamino]-thiazolo[4,5-b]pyridine-6-carbonitrile], at EGFR, the inhibition at 2 µM was found to be 4%. The same compound showed an IC50 against c-Src kinase (human) of over 100 µM.
On EGFR, `COc1ccc(Cl)c(Nc2c(C#N)cnc3nc(Nc4ccc(OCC5CCCN(C)C5)cc4)sc23)c1` (centres unmarked) [Cpd 35, 7-(2-chloro-5-methoxy-phenylamino)-2-[4-(1-methyl-piperidin-3-ylmethoxy)-phenylamino]-thiazolo[4,5-b]pyridine-6-carbonitrile] came in with an IC50 of 0.461 µM. For the same compound, the inhibition at 1.6 µM on c-Src kinase (human) was found to be 11%.
Turning to `CN1CCCC(COc2ccc(Nc3nc4ncc(C#N)c(Sc5ccc(F)cc5Cl)c4s3)cc2)C1` (centres unmarked) [Cpd 39, 7-(2-chloro-4-fluoro-phenylsulfanyl)-2-[4-(1-methyl-piperidin-3-ylmethoxy)-phenylamino]-thiazolo[4,5-b]pyridine-6-carbonitrile], the IC50 against EGFR is 3.26 µM; against c-Src kinase (human), over 100 µM.
`N#Cc1cnc2nc(Nc3ccc(CN4CCCC4)cc3)sc2c1Nc1ccc(F)c(Cl)c1` [Cpd 17, 7-(3-chloro-4-fluoro-phenylamino)-2-(4-pyrrolidin-1-ylmethyl-phenylamino)-thiazolo[4,5-b]pyridine-6-carbonitrile]: the IC50 against EGFR was 0.0399 µM; against HER-2, 46 µM.
For the compound `N#Cc1cnc2nc(Nc3ccc(CN4CCCC4)cc3)sc2c1Nc1c(Cl)ccc2c1OCO2` [Cpd 45, 7-(5-chloro-benzo[1,3]dioxol-4-ylamino)-2-(4-pyrrolidin-1-ylmethyl-phenylamino)-thiazolo[4,5-b]pyridine-6-carbonitrile], the IC50 against c-Src kinase (human) was 0.145 µM.
For the compound `N#Cc1cnc2nc(Nc3ccc(CNC[C@H]4CCCO4)cc3)sc2c1Nc1c(Cl)ccc2c1OCO2` [Cpd 44, 7-(5-chloro-benzo[1,3]dioxol-4-ylamino)-2-[4-({[(2R)-tetrahydro-furan-2-ylmethyl]-amino}-methyl)-phenylamino]-thiazolo[4,5-b]pyridine-6-carbonitrile], the inhibition at 2 µM at EGFR was 47%. On c-Src kinase (human), this compound had an IC50 of 0.126 µM.
`CN1CCCC(COc2ccc(Nc3nc4ncc(C#N)c(Oc5cccc(OC(F)(F)F)c5)c4s3)cc2)C1` (centres unmarked) [Cpd 37, 2-[4-(1-methyl-piperidin-3-ylmethoxy)-phenylamino]-7-(3-trifluoromethoxy-phenoxy)-thiazolo[4,5-b]pyridine-6-carbonitrile] showed an IC50 at EGFR of 7.21 µM. Besides, the inhibition at 1.6 µM on c-Src kinase (human) was 3%.
